Two molecules from PMC10714400, “Antimicrobial Peptide–Peptoid Hybrids with and without Membrane Disruption” (ACS Infectious Diseases, 2023) can be followed below.

Structures are written as SMILES. ≈ marks a conversion by molar mass, not a printed value. Where a SMILES comes first, the peptide text is derived from it. [ ]: non-standard residue; d: D form. Nleu = CC(C)CNCC(=O)O; Nlys = NCCCCNCC(=O)O Some results are limits rather than exact numbers.

For one data set, the system named is E. coli W3110. The settings on record: for MIC E. coli W3110, […] MH at pH 7.4 / MIC E. coli W3110, […] MH at pH 8.5 / MIC E. coli W3110, full MH at pH 7.4 / MIC E. coli W3110, full MH at pH 8.5: CSV; for MIC E. coli W3110 […]: diluted MH ([…] MH, pH 8.5) per Table 1 footnote b, 16–20 h at 37 °C; for MIC E. coli W3110 Full: full MH, pH 7.4, 16–20 h at 37 °C. On the procedure:
(§1) Antimicrobial activity was assayed for all the peptide–peptoids against P. aeruginosa PAO1, K. pneumoniae NCTC418, E. coli W3110, A. baumannii ATCC 19606, methicillin-resistant S. aureus COL (MRSA), and for selected peptides on P. aeruginosa PA14 and the polymyxin-B-resistant derivatives PA14 4.13, PA14 4.18, PA14 2P4, as well as the clinical isolates ZEM-1A and ZEM9A, K. pneumoniae OXA-48, S. aureus Newman, Enterobacter cloacae, Stenotrophomonas maltophilia, Burkholderia cenocepacia, and Staphylococus epidermidis. To determine the Minimal Inhibitory Concentration (MIC), the Broth Microdilution method was used.[72] A colony of bacteria was picked and grown in LB medium overnight at 37 °C.
(§2) To each well was finally added 4 μL of the diluted bacterial suspension (see above), corresponding to approximately 5 × 10^5 CFU. For each test, two columns of the plate were kept for sterility control (medium only), growth control (medium with bacterial inoculum, no compound). The positive control, Polymyxin B (starting with a concentration of 16 μg/mL) in MH medium with bacterial inocula, was introduced in the two lines of the plate. The plates were incubated at 37 °C for ca. 18 h under static conditions. Next, 15 μL of 3-(4,5-dimethylthiazol-2-yl)-2,5-diphenyltetrazolium bromide (MTT)[73] (1 mg/mL in sterilized MilliQ deionized water) were added to each well, and the plates were incubated for 20–30 min at room temperature. The minimal inhibitory concentration (MIC) was defined as the lowest concentration of the compound that inhibits the visible growth of the tested bacteria (yellow) with the unaided eye.

Another data set has as its system K. pneumoniae NCTC418. The settings on record: NCTC418, 4 h. On the procedure:
as §1, §2

In the next data set the test system is PA14 2P4 (pmrB). The settings on record: CSV; […] MH at pH 8.5. The method, then: as §1, §2
The subject of a further data set is P. aeruginosa PAO1. The settings on record: PAO1, 4 h. On the procedure:
as §1, §2

The next data set concerns S. aureus COL (MRSA). As to conditions: COL. The method, then:
as §1, §2

The next data set has as its system A. baumannii ATCC19606. As to conditions: for MIC A. baumannii ATCC19606, full MH at pH 7.4 / MIC A. baumannii ATCC19606, full MH at pH 8.5: ATCC19606, 4 h. The method, then:
as §1, §2

In a further data set the test system is PA14 4.18 (pmrB). As to conditions: CSV; […] MH at pH 8.5. On the procedure: as §1, §2
The next data set relates to PA14 4.13 (phoQ). The settings on record: […] MH at pH 8.5; for MIC P. aeruginosa PA14 4.13, […] MH at pH 8.5: CSV. The method, then:
as §1, §2

For data set [1], the system named is human red blood cells (hRBC). The data set can be described thus: Minimum hemolytic concentration (MHC). The class given is cell-based.
Source text: We also measured minimal hemolysis concentrations (MHC) on human red blood cells by serial 2-fold dilution as an indication of toxicity against eukaryotic cells (Table 1).

In the case of `CC(C)C[C@H](NC(=O)[C@H](CC(C)C)NC(=O)[C@H](CC(C)C)NC(=O)CN(CCCCN)C(=O)[C@H](CC(C)C)NC(=O)[C@H](CC(C)C)NC(=O)CN(CCCCN)C(=O)[C@H](CC(C)C)NC(=O)[C@H](CC(C)C)NC(=O)CN(CCCCN)C(=O)CNCCCCN)C(N)=O` [EB7, kkLLkLLkLLL] (H-[Nlys][Nlys]LL[Nlys]LL[Nlys]LLL-NH2), in the data set with E. coli W3110, the “MIC E. coli W3110, […] MH at pH 7.4” value worked out at 4 ug/mL; the “MIC E. coli W3110, […] MH at pH 8.5” value is on record as 1 ug/mL; the “MIC E. coli W3110, full MH at pH 7.4” value came to 16 ug/mL; the “MIC E. coli W3110, full MH at pH 8.5” value was 4 ug/mL. For the same molecule, in the data set with E. coli W3110, the “MIC E. coli W3110 […]” value was found to be 4 µg/mL (≈ 3.03 µM) and the “MIC E. coli W3110 Full” value is 16 µg/mL (≈ 12.1 µM). Further, in the data set with K. pneumoniae NCTC418, the “MIC K. pneumoniae NCTC418, full MH at pH 7.4” value is over 32 ug/mL and the “MIC K. pneumoniae NCTC418, full MH at pH 8.5” value turned out to be 4 ug/mL. In addition, in the data set on PA14 2P4 (pmrB), the “MIC P. aeruginosa PA14 2P4, […] MH at pH 8.5” value stood at 16 ug/mL. In addition, in the data set on P. aeruginosa PAO1, the “MIC P. aeruginosa PAO1, full MH at pH 7.4” value was determined as 32 ug/mL and the “MIC P. aeruginosa PAO1, full MH at pH 8.5” value is recorded as 8 ug/mL. Also, the “MIC S. aureus COL (MRSA), full MH at pH 7.4” value in the data set with S. aureus COL (MRSA) (4 h, pH 7.4) was over 32 ug/mL. Further, in the data set on S. aureus COL (MRSA) (4 h, pH 8.5), the “MIC S. aureus COL (MRSA) Full MH 8.5” value lay within 4 to 8 µg/mL and the “MIC S. aureus COL (MRSA), full MH at pH 8.5” value was determined as 6 ug/mL. Further, the “MIC S. aureus COL (MRSA) Full” value in the data set with S. aureus COL (MRSA) (pH 7.4) is over 32 µg/mL. For the same molecule, in the data set with A. baumannii ATCC19606, the “MIC A. baumannii ATCC19606, full MH at pH 7.4” value is recorded as over 32 ug/mL and the “MIC A. baumannii ATCC19606, full MH at pH 8.5” value came out at 4 ug/mL. Also, the “MIC A. baumannii ATCC19606 Full” value in the data set on A. baumannii ATCC19606 (ATCC19606, pH 7.4) was over 32 µg/mL. The “MIC P. aeruginosa PA14 4.18, […] MH at pH 8.5” value in the data set with PA14 4.18 (pmrB) amounted to 8 ug/mL. In the data set on PA14 4.13 (phoQ), the “MIC P. aeruginosa PA14 4.13, […] MH at pH 8.5” value is 4 ug/mL. Also, in data set [1], the Hemolysis entry is “none of them showed any measurable hemolysis” and the MHC is over 2000 µg/mL.

With `CC(C)CN(CC(N)=O)C(=O)CN(CC(C)C)C(=O)CN(CC(C)C)C(=O)[C@H](CCCCN)NC(=O)CN(CC(C)C)C(=O)CN(CC(C)C)C(=O)[C@H](CCCCN)NC(=O)CN(CC(C)C)C(=O)CN(CC(C)C)C(=O)[C@H](CCCCN)NC(=O)[C@@H](N)CCCCN` [EB8, KKllKllKlll] (H-KK[Nleu][Nleu]K[Nleu][Nleu]K[Nleu][Nleu][Nleu]-NH2), in the data set with E. coli W3110, the “MIC E. coli W3110, […] MH at pH 7.4” value is given as 8 ug/mL; the “MIC E. coli W3110, […] MH at pH 8.5” value is listed as 3 ug/mL; the “MIC E. coli W3110, full MH at pH 7.4” value is given as over 32 ug/mL; the “MIC E. coli W3110, full MH at pH 8.5” value is 8 ug/mL. Further, in the data set with E. coli W3110, the “MIC E. coli W3110 […]” value turned out to be 8 µg/mL (≈ 6.05 µM) and the “MIC E. coli W3110 Full” value is over 32 µg/mL. Moreover, in the data set with E. coli W3110 (Table S2, […] MH, pH 8.5), the “MIC E. coli W3110 […] 8.5” value lay in the range of 2 to 4 µg/mL. In addition, in the data set on K. pneumoniae NCTC418, the “MIC K. pneumoniae NCTC418, full MH at pH 7.4” value is over 32 ug/mL and the “MIC K. pneumoniae NCTC418, full MH at pH 8.5” value turned out to be 16 ug/mL. Also, the “MIC P. aeruginosa PA14 2P4, […] MH at pH 8.5” value in the data set with PA14 2P4 (pmrB) amounted to 32 ug/mL. Also, in the data set on P. aeruginosa PAO1, the “MIC P. aeruginosa PAO1, full MH at pH 7.4” value was over 32 ug/mL and the “MIC P. aeruginosa PAO1, full MH at pH 8.5” value came to 16 ug/mL. In addition, the “MIC S. aureus COL (MRSA), full MH at pH 7.4” value in the data set on S. aureus COL (MRSA) (4 h, pH 7.4) was over 32 ug/mL. Further, the “MIC S. aureus COL (MRSA), full MH at pH 8.5” value in the data set with S. aureus COL (MRSA) (4 h, pH 8.5) amounted to 16 ug/mL. In the data set on A. baumannii ATCC19606, the “MIC A. baumannii ATCC19606, full MH at pH 7.4” value is given as over 32 ug/mL and the “MIC A. baumannii ATCC19606, full MH at pH 8.5” value was 16 ug/mL. Also, the “MIC P. aeruginosa PA14 4.18, […] MH at pH 8.5” value in the data set on PA14 4.18 (pmrB) turned out to be 32 ug/mL. Moreover, the “MIC P. aeruginosa PA14 4.13, […] MH at pH 8.5” value against PA14 4.13 (phoQ) is 24 ug/mL. In the data set on PA14 4.13 (phoQ) (Table S3), the “MIC P. aeruginosa PA14 4.13” value was in the range of 16 to 32 µg/mL. Further, in data set [1], the Hemolysis entry is “none of them showed any measurable hemolysis” and the MHC is over 2000 µg/mL.
